Data as given in patent publication US7220822B2, “CD28 mimetics for blocking T cell mediated immune reactions” (The Ohio State University, priority 2000, dated 2007).
Where two headings read alike, the source gives them in different places. Square brackets hold non-standard residues; d marks the D form. Peptide text beside a SMILES is read from it.

What was measured:
[1] = target: T1, CD80-Ig (Homo sapiens, UniProt P33681); test: Direct kinetic analysis of CD28 peptide binding to immobilized CD80-Ig by surface plasmon resonance (BIACORE); conditions: for maximum response units obtained for binding to CD80-Ig: SPR direct binding; for kd: direct binding; for kon: pH 7.4, direct binding, read-out: ka
T1 construct: extracellular domain of CD80 fused with the constant region of mouse IgG1 heavy chain
T1 sequence (P33681 35-242 limits assumed, other chains not shown): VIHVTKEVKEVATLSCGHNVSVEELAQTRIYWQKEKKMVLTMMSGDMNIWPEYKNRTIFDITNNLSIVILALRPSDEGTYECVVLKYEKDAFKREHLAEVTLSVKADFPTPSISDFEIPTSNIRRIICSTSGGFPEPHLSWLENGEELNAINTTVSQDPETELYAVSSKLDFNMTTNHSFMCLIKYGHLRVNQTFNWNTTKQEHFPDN
Experimental: Binding experiments were performed by surface plasmon resonance (SPR) on an instrument sold under the trademark BIACORE™ from Pharmacia Biosensor (Uppasala, Sweden).
CD80-Ig (extracellular domain of CD80 fused with the constant region of mouse IgG1 heavy chain) at 35 μg/ml in 10 mM sodium acetate buffer, pH 4.2, was coupled to a research grade CM 5 sensor chip using a standard amine coupling procedure with the following modifications (38). To reduce the immobilization level of the ligand, the surface was activated for 3 (instead of 7) minutes with N-hydroxysuccinamide and […]. […] Following coupling, noncovalently bound ligand was removed by washing twice with 5 mM NaOH.
The analytes were also injected at the same concentration and injection times over an empty flow cell with nothing immobilized.
Data analysis was performed with BIAEVALUATION™ software version 2.1(Pharmacia Biosensor AB). […] Prior to kinetic analysis, data were adjusted to zero baseline level by subtracting the background responses obtained by injection of the analytes through a control flow cell with no ligand immobilized. First, the dissociation rate constant, kd, (units: s^−1) was determined, by fitting experimental data from the buffer flow part of the sensogram to the equation R(t)=R1*e^−kd*(t^0^−t^1^) (1) where t0 is the injection time, R1 is the response level at the start of dissociation time t1 and kd is the dissociation rate constant.
The kd value obtained was used as a constant during the analysis of the injection phase data. Binding data above the noise level was selected by converting the sensogram to a plot of the logarithm of the binding rate vs time (dR/dt vs. time). The ka was determined by nonlinear curve fitting of the following equation R(t)=Req*{1−e^−(k^a^*C+k^d^)*(t) (2) where R(t) is the response at time t, Req is the steady state response level, ka is the association rate constant (units: M^−1s^−1), kd is the dissociation rate constant and C is the concentration of the injected peptide analyte. An offset was added to account for the refractive index differences between the analyte and the running buffer.
After analyzing sensograms obtained from injections of increasing concentrations of peptide analytes or CD28-Ig, the experimental data was analyzed using the BIAsimulation software 2.1. A plot of the logarithm of (dR/dt) against time was calculated from the sensograms, and then the slopes at different concentrations were plotted against the concentrations of the peptide analyte. Different angles obtained of the linear lines represent the variation of affinities, which gives the association rate constant (ka) from the equation ln dR/dt=ln(kaCR max)−KaC+kd)t (4) where dR/dt is the rate of change of the SPR signal, C is the concentration of the analyte, Rmax is the maximum analyte binding capacity in RU and R is the SPR signal in RU at time t. The dissociation rate constant is obtained from the equation Kd=kd/ka (5)

[2] = tested on: CD4+ LNC from Vα4/Vβ8.2 TCR transgenic mice; assay type: cell-based, mouse; conditions: CD4+ LNC and spleen cells, NAc 1-11 10 μg/ml, all concentrations used
Experimental: The in vitro effect of varying concentration of the CD 28 peptide mimetics on CD4+ lymph node cells and spleen cells from transgenic mice bearing the Vα 4 Vβ8.2 TCR specific for MBP Ac 1-11 was determined.
CD4+ T cells were purified from pooled peripheral lymph nodes (inguinal, axillary, brachial, cervical, popliteal), and mesenteric lymph nodes and spleen of 6–8 wk old Vα4/Vβ8.2 TCR transgenic mice by positive selection. Single cell suspensions were prepared by lympholyte M gradient, washed, counted and incubated with magnetic bead conjugated anti-mouse CD4 (L3T4) (Miltenyi Biotech Corporation) followed by positive selection using magnetic selection columns. Purity of the CD4^+ cells was greater than 90% as assessed by staining with FITC labeled anti-mouseVβ8.2 mAb (Pharmingen). During the selection process, T cells maintain a naïve phenotype with no evidence for T cell activation as measured by proliferation in culture. Purified CD4+ T-cells (5×10^4 cells/well) were cultured together with wild type splenocytes from B10.PL mice as APC's (10^5 cells/well) in RPMI 1640 containing 10% FCS, 25 mM HEPES, 2 mM L-glutamine, 50 U/ml penicillin, 50 μg/ml streptomycin, and 5×10–5 M 2-ME in round-bottom 96-well plates and MBP (40 μg/ml) or MBP NAc1-11 (10 μg/ml) or media only in the presence or absence of synthetic CD28 peptide analogues at different concentrations in triplicate wells for 72 h, including a final 18-h pulse with [^3H] thymidine. Cultures were harvested onto glass-fiber mats using a Skatron harvester (Skatron, Sterling, Va.) and were counted by liquid scintillation on LKB Betaplate (LKB, Rockville, Md.). The means of the triplicate were determined and the results are expressed as delta cpm (mean counts per minute of cultures with Ag-mean counts per minute of cultures with medium alone)±SD.

[3] = tested on: CD4+ LNC bearing Vα4 Vβ8.2 TCR; test: IL-2 ELISPOT of antigen-stimulated CD4+ lymph node cells in vitro; assay type: cell-based, mouse; parameters: frequency of IL-2 secreting cells (in words): dose or concentration left out as unconfirmed; conditions: for number of IL-2 secreting NAc1-11 responders (in words): 75 μM and 100 μM peptide, p<0.05; for frequency of IL-2 secreting cells (in words): compared to untreated cells
Experimental: Augmentation of T cell proliferation following CD28 ligation is a result of its ability to increase the synthesis of IL-2. To determine whether the observed reduction in proliferation is reflected in the IL-2 secretion, the ELISPOT assay was performed.
Ninety-six well unifilter plates (Polyfiltronics, Rockland, Md.) were coated overnight at 4° C. with rat anti-mouse IL-2 (Clone JES6-1A12) (Pharmingen, Calif.) at 4 μg/ml. The plates were then washed 4× with sterile PBS and blocked with 1% BSA in DMEM for 2 h at room temperature. Subsequently, isolated single cell suspensions of CD4+ LNC (5×10^6 cells/ml) and splenocytes (10×10^6 cells/ml) were added with the antigens and CD28 peptides under the conditions as specified for the proliferation assays. After 24 h of culture in the incubator, the cells were removed by washing 3× with PBS and 4× with PBS containing Tween (1:2000) (PBST). Then biotinylated anti mouse-IL-2 (Clone JES6-5H4) (Pharmingen, Calif.) 2 μg/ml was added and incubated at 4° C. overnight. After washing 3× with PBST and 3× with PBS, goat anti-biotin antibody conjugated to alkaline phosphatase (Vector Laboratories Inc, Burlingame, Calif.) diluted to 1:1000 in PBST containing 1% BSA was added and incubated for 2 h at room temperature. The spots were visualized by adding BCIP/NBT phosphatase substrate (Kirkeguard & Perry Laboratories, Gaithesburg, Md.). Image analysis of ELISA spot assays was performed on a Series 1 Immunospot Image Analyzer (Autoimmun Diagnostika (US) Inc.) customized for analyzing ELISA spots to meet objective criteria for size, chromatic density, shape and color.

SMILES	maximum response units obtained for binding to CD80-Ig [1]	kd ([1]; C 1.00E+03 nM)	kd ([1]; C 1.50E+03 nM)	kd ([1]; C 3.00E+03 nM)	kd ([1]; C 6.00E+03 nM)	kon ([1]; C 1.00E+03 nM)	kon ([1]; C 1.50E+03 nM)	kon ([1]; C 3.00E+03 nM)	kon ([1]; C 6.00E+03 nM)	proliferative response / inhibition of T cell proliferation (in words) [2]	number of IL-2 secreting NAc1-11 responders (in words) [3]	frequency of IL-2 secreting cells (in words) [3]	kd ([1]; C 3.75E+02 nM)	kd ([1]; C 7.50E+02 nM)	kon ([1]; C 3.75E+02 nM)	kon ([1]; C 7.50E+02 nM)
CC[C@@H](C)[C@@H](NC(C)=O)C(=O)N[C@@H](C(=O)NCC(=O)N[C@H](CC(N)=O)C(=O)N[C@H](CO)C(=O)N[C@H](CCCNC(=N)N)C(=O)N[C@H](CCC(=O)O)C(=O)N[C@H](CC(N)=O)C(=O)N[C@H](CC(=O)O)C(=O)N[C@H](CC(C)C)C(=O)N[C@H](Cc1ccc(O)cc1)C(=O)N1CCC[C@@H]1C(=O)N1CCC[C@@H]1C(=O)N1CCC[C@@H]1C(=O)N[C@H](Cc1ccc(O)cc1)C(=O)N[C@H](CCSC)C(=O)N[C@H](Cc1ccccc1)C(=O)N[C@H](CCC(=O)O)C(=O)N[C@@H](C(=O)N[C@H](CCCCN)C(N)=O)[C@H](C)CC)[C@H](C)O [RI CD28] (Ac-[dI][dT]G[dN][dS][dR][dE][dN][dD][dL][dY][dP][dP][dP][dY][dM][dF][dE][dI][dK]-NH2)	444.2 RU	0.205 s⁻¹	0.183 s⁻¹	0.146 s⁻¹	0.228 s⁻¹	171000 M⁻¹ s⁻¹	141000 M⁻¹ s⁻¹	122000 M⁻¹ s⁻¹	112000 M⁻¹ s⁻¹	significantly less	Significant decrease	significantly reduced	–	–	–	–
CC[C@H](C)[C@H](NC(=O)[C@@H](NC(=O)CNC(=O)[C@H](CC(N)=O)NC(=O)[C@H](CO)NC(=O)[C@H](CCCNC(=N)N)NC(=O)[C@H](CCC(=O)O)NC(=O)[C@H](CC(N)=O)NC(=O)[C@H](CC(=O)O)NC(=O)[C@H](CC(C)C)NC(=O)[C@H](Cc1ccc(O)cc1)NC(=O)[C@@H]1CCCN1C(=O)[C@@H]1CCCN1C(=O)[C@@H]1CCCN1C(=O)[C@H](Cc1ccc(O)cc1)NC(=O)[C@H](CCSC)NC(=O)[C@H](Cc1ccccc1)NC(=O)[C@H](CCC(=O)O)NC(=O)[C@@H](NC(=O)[C@H](CCCCN)NC(C)=O)[C@@H](C)CC)[C@@H](C)O)C(N)=O [EL CD28] (Ac-KIEFMYPPPYLDNERSNGTI-NH2)	667.5 RU	–	0.242 s⁻¹	0.214 s⁻¹	0.273 s⁻¹	–	115000 M⁻¹ s⁻¹	137000 M⁻¹ s⁻¹	111000 M⁻¹ s⁻¹	significantly less	Significant decrease	significantly reduced	0.399 s⁻¹	0.274 s⁻¹	246000 M⁻¹ s⁻¹	110000 M⁻¹ s⁻¹
